For the experiment, the target named is Ba/F3 (EGFR^L858R/T790M/C797S) cells (Homo sapiens, UniProt P00533, T790M/C797S/L858R, cells depend on it). Description: Antiproliferative activity on Ba/F3 (EGFR L858R/T790M/C797S) cells (CTG). Format: cell-based. The note with it: 72h incubation, CTG luminescence, read-out: IC50 (nM), antiproliferative activity. As to the method: 30 nL of the compound dilution was added to a 384-well plate by Echo (Labcyte, Echo550).
The percent inhibition rate (% inhibition) was calculated by the following formula
[formula] • LUMcmpd: Luminescence value of assay compound. • LUMpositive: Average LUM value of positive drug with a concentration of 10 μM. • LUMvehicle: Average LUM value of negative control group without drug treatment.
The nonlinear regression curve (dose response-variable slope) between the value of inhibition rate (%) and the logarithm of compound concentration was fitted with graphpad prism 8.0, the effect dose curve of compound was drawn, and the IC50 value was calculated.
Y=Bottom+(Top−Bottom)/(1+10^((Log IC50−X)*HillSlope)) • X-axis: logarithm of compound concentration; Y axis: inhibition rate (% inhibition).

GI50 data for 14 molecules are collected here from patent US20250257086A1, “EGFR DEGRADATION AGENT” (Beijing Tide Pharmaceutical Co., Ltd., priority 2022, published 2025).

Ba/F3 (EGFR^L858R/T790M/C797S) cells, sequence (P00533 whole entry T790M/C797S/L858R): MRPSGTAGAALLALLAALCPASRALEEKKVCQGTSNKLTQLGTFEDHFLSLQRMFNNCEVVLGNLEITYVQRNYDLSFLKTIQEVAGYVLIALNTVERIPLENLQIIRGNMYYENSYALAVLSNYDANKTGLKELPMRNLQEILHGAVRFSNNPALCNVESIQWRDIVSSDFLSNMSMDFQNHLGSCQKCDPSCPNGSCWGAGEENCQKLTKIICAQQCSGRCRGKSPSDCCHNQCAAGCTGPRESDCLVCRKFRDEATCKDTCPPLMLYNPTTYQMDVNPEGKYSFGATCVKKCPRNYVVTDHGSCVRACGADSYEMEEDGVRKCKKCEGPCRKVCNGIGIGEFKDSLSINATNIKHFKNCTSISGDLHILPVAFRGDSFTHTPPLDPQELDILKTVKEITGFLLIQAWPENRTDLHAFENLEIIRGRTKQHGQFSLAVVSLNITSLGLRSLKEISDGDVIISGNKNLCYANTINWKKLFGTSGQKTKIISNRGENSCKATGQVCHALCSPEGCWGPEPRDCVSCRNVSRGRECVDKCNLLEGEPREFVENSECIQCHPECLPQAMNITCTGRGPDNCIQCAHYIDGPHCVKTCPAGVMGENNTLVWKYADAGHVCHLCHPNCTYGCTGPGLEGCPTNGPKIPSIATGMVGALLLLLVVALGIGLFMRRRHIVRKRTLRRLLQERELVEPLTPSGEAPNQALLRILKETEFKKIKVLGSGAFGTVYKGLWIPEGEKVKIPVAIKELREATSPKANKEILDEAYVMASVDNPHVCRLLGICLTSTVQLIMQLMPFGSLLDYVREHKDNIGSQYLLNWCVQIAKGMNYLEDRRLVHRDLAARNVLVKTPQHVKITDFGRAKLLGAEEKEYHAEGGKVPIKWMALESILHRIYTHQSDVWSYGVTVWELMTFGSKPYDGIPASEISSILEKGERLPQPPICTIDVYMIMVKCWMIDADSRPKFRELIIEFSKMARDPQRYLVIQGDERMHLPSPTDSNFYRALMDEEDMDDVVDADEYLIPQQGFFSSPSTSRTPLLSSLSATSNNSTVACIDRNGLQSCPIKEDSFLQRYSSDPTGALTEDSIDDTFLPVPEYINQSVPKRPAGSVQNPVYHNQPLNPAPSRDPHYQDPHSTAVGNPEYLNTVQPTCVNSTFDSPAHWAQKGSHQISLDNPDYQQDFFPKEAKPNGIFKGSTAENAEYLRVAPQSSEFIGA

As to `C=CC(=O)Nc1cc(Nc2ncc(Br)c(Nc3ccccc3P(C)(C)=O)n2)c(OC)cc1N1CCC(N2CCN(C)CC2)CC1` [Comparative compound L495, reference compound], the GI50 was found to be 3740 nM. As to `CC#CC(=O)Nc1cc(Nc2ncc(Cl)c(Nc3ccccc3P(C)(C)=O)n2)c(OC)cc1N1CCC(N2CCN(C)CC2)CC1` [Comparative compound L521, reference compound], the GI50 was 3050 nM. Regarding `C=CC(=O)Nc1cc(Nc2ncc(Br)c(Nc3ccccc3P(C)(C)=O)n2)c(OC)cc1N1CCC(N2CCN(CCCCC#Cc3cccc4c3CN(C3CCC(=O)NC3=O)C4=O)CC2)CC1` (centres unmarked) [Compound D479, N-(5-((5-bromo-4-((2-(dimethylphosphoryl)phenyl)amino)pyrimidin-2-yl)amino)-2-(4-(4-(6-(2-(2,6-dioxopiperidin-3-yl)-1-oxoisoindolin-4-yl)hex-5-yn-1-yl)piperazin-1-yl)piperidin-1-yl)-4-methoxyphenyl)acrylamide], the GI50 was found to be 86.8 nM.

On to `C=CC(=O)Nc1cc(Nc2ncc(Cl)c(Nc3ccccc3P(C)(C)=O)n2)c(OC)cc1N1CCC(N2CCN(CCCC#Cc3cccc4c3CN(C3CCC(=O)NC3=O)C4=O)CC2)CC1` (centres unmarked) [Compound D481, N-(5-((5-chloro-4-((2-(dimethylphosphoryl)phenyl)amino)pyrimidin-2-yl)amino)-2-(4-(4-(5-(2-(2,6-dioxopiperidin-3-yl)-1-oxoisoindolin-4-yl)pent-4-yn-1-yl)piperazin-1-yl)piperidin-1-yl)-4-methoxyphenyl)acrylamide], for which the GI50 is 68.7 nM. As to `C=CC(=O)Nc1cc(Nc2ncc(Br)c(Nc3ccccc3P(C)(C)=O)n2)c(OC)cc1N1CCC(N2CCN(CCCCCC#Cc3cccc4c3CN(C3CCC(=O)NC3=O)C4=O)CC2)CC1` (centres unmarked) [Compound D503, N-(5-((5-bromo-4-((2-(dimethylphosphoryl)phenyl)amino)pyrimidin-2-yl)amino)-2-(4-(4-(7-(2-(2,6-dioxopiperidin-3-yl)-1-oxoisoindolin-4-yl)hept-6-yn-1-yl)piperazin-1-yl)piperidin-1-yl)-4-methoxyphenyl)acrylamide], the GI50 was 51.2 nM. For `C=CC(=O)Nc1cc(Nc2ncc(Br)c(Nc3ccccc3P(C)(C)=O)n2)ccc1N1CCC(N2CCN(CCCC#Cc3cccc4c3CN(C3CCC(=O)NC3=O)C4=O)CC2)CC1` (centres unmarked) [Compound D549, N-(5-((5-bromo-4-((2-(dimethylphosphoryl)phenyl)amino)pyrimidin-2-yl)amino)-2-(4-(4-(5-(2-(2,6-dioxopiperidin-3-yl)-1-oxoisoindolin-4-yl)pent-4-yn-1-yl)piperazin-1-yl)piperidin-1-yl)phenyl)acrylamide], the GI50 was found to be 7.41 nM. `C=CC(=O)Nc1cc(Nc2ncc(Br)c(Nc3ccccc3P(C)(C)=O)n2)ccc1N1CCC(N2CCN(CCCCC#Cc3cccc4c3CN(C3CCC(=O)NC3=O)C4=O)CC2)CC1` (centres unmarked) [Compound D550, N-(5-((5-bromo-4-((2-(dimethylphosphoryl)phenyl)amino)pyrimidin-2-yl)amino)-2-(4-(4-(6-(2-(2,6-dioxopiperidin-3-yl)-1-oxoisoindolin-4-yl)hex-5-yn-1-yl)piperazin-1-yl)piperidin-1-yl)phenyl)acrylamide]: the GI50 was 14.4 nM. Turning to `C=CC(=O)Nc1cc(Nc2ncc(Br)c(Nc3ccccc3P(C)(C)=O)n2)ccc1N1CCC(N2CCN(CCCCCC#Cc3cccc4c3CN(C3CCC(=O)NC3=O)C4=O)CC2)CC1` (centres unmarked) [Compound D551, N-(5-((5-bromo-4-((2-(dimethylphosphoryl)phenyl)amino)pyrimidin-2-yl)amino)-2-(4-(4-(7-(2-(2,6-dioxopiperidin-3-yl)-1-oxoisoindolin-4-yl)hept-6-yn-1-yl)piperazin-1-yl)piperidin-1-yl)phenyl)acrylamide], the GI50 is 14.5 nM. With `C=C(F)C(=O)Nc1cc(Nc2ncc(Cl)c(Nc3ccccc3P(C)(C)=O)n2)c(OC)cc1N1CCC(N2CCN(CCCCC#Cc3cccc4c3CN(C3CCC(=O)NC3=O)C4=O)CC2)CC1` (centres unmarked) [Compound D553, N-(5-((5-chloro-4-((2-(dimethylphosphoryl)phenyl)amino)pyrimidin-2-yl)amino)-2-(4-(4-(6-(2-(2,6-dioxopiperidin-3-yl)-1-oxoisoindolin-4-yl)hex-5-yn-1-yl)piperazin-1-yl)piperidin-1-yl)-4-methoxyphenyl)-2-fluoroacrylamide] the figure was 49.5 nM. Consider `C=C(F)C(=O)Nc1cc(Nc2ncc(Cl)c(Nc3ccccc3P(C)(C)=O)n2)c(OC)cc1N1CCC(N2CCN(CCCCCC#Cc3cccc4c3CN(C3CCC(=O)NC3=O)C4=O)CC2)CC1` (centres unmarked) [Compound D554, N-(5-((5-chloro-4-((2-(dimethylphosphoryl)phenyl)amino)pyrimidin-2-yl)amino)-2-(4-(4-(7-(2-(2,6-dioxopiperidin-3-yl)-1-oxoisoindolin-4-yl)hept-6-yn-1-yl)piperazin-1-yl)piperidin-1-yl)-4-methoxyphenyl)-2-fluoroacrylamide], for which the GI50 was 45.2 nM.

Regarding `COc1cc(N2CCC(N3CCN(CCCC#Cc4cccc5c4CN(C4CCC(=O)NC4=O)C5=O)CC3)CC2)c(NC(=O)/C=C/CN(C)C)cc1Nc1ncc(Cl)c(Nc2ccccc2P(C)(C)=O)n1` (centres unmarked) [Compound D555, N-(5-((5-chloro-4-((2-(dimethylphosphoryl)phenyl)amino)pyrimidin-2-yl)amino)-2-(4-(4-(5-(2-(2,6-dioxopiperidin-3-yl)-1-oxoisoindolin-4-yl)pent-4-yn-1-yl)piperazin-1-yl)piperidin-1-yl)-4-methoxyphenyl)-4-(dimethylamino)but-2-enamide], the GI50 came to 67.6 nM.

Take `COc1cc(N2CCC(N3CCN(CCCCC#Cc4cccc5c4CN(C4CCC(=O)NC4=O)C5=O)CC3)CC2)c(NC(=O)/C=C/CN(C)C)cc1Nc1ncc(Cl)c(Nc2ccccc2P(C)(C)=O)n1` (centres unmarked) [Compound D556, (E)-N-(5-((5-chloro-4-((2-(dimethylphosphoryl)phenyl)amino)pyrimidin-2-yl)amino)-2-(4-(4-(6-(2-(2,6-dioxopiperidin-3-yl)-1-oxoisoindolin-4-yl)hex-5-yn-1-yl)piperazin-1-yl)piperidin-1-yl)-4-dimethoxyphenyl)-4-(dimethylamino)but-2-enamide]: the GI50 is 582 nM. For `COc1cc(N2CCC(N3CCN(CCCCCC#Cc4cccc5c4CN(C4CCC(=O)NC4=O)C5=O)CC3)CC2)c(NC(=O)/C=C/CN(C)C)cc1Nc1ncc(Cl)c(Nc2ccccc2P(C)(C)=O)n1` (centres unmarked) [Compound D557, (E)-N-(5-((5-chloro-4-((2-(dimethylphosphoryl)phenyl)amino)pyrimidin-2-yl)amino)-2-(4-(4-(7-(2-(2,6-dioxopiperidin-3-yl)-1-oxoisoindolin-4-yl)hept-6-yn-1-yl)piperazin-1-yl)piperidin-1-yl)-4-dimethoxyphenyl)-4-(dimethylamino)but-2-enamide], the GI50 is 383 nM. For the molecule `CC#CC(=O)Nc1cc(Nc2ncc(Cl)c(Nc3ccccc3P(C)(C)=O)n2)c(OC)cc1N1CCC(N2CCN(CCCCC#Cc3cccc4c3CN(C3CCC(=O)NC3=O)C4=O)CC2)CC1` (centres unmarked) [Compound D559, N-(5-((5-chloro-4-((2-(dimethylphosphoryl)phenyl)amino)pyrimidin-2-yl)amino)-2-(4-(4-(6-(2-(2,6-dioxopiperidin-3-yl)-1-oxoisoindolin-4-yl)hex-5-yn-1-yl)piperazin-1-yl)piperidin-1-yl)-4-methoxyphenyl)but-2-ynamide], the GI50 is 50.4 nM.
